Results taken from patent US20150265554A1, “Treatment of MeCP-2 Associated Disorders” (UNIVERSITÉ D'AIX-MARSEILLE, priority 2010, published 2015).

Columns and labels:
Mecp2-deficient mice [1] = experiment: Lifespan (survival) study, oral cysteamine in drinking water; assay type: in vivo, mouse; conditions: cysteamine in drinking water 225 mg/kg/day from P30, mean±SEM, n=17, p<0.05 vs vehicle (65±2.2 days), Kaplan-Meir log-rank test
Experimental: Experiments were performed on Sprague dawley rats and B6.129P2(C)- MeCP2 tm1-1 Bird mouse model for RTT (Guy, J., Hendrich, B., Holmes, M., Martin, J. E., Bird, A. (2001) A mouse Mecp2-null mutation causes neurological symptoms that mimic Rett syndrome. Nat. Genet. 27, 322-326). The mice were obtained from the Jackson Laboratory and maintained on a C57BL/6 background. The rats were obtained from Charles River Laboratories, France. The experimental procedures were carried out in keeping with the European guidelines for the care and use of laboratory animals (Council Directive […]). For the mouse experiments, hemizygous mutant males (MeCP2^-/y) were generated by crossing heterozygous knockout females to C57BL/6 males. […]
From P30, animals received a cysteamine treatment in their drinking water (225 mg/kg/day) (Sigma-Aldrich; St-Quentin, France). […] Open-field activity was measured in an arena made of clear perspex (38×30 cm). The test session lasted 15 min with data recorded using the Ethovision 2.3.19 tracking system (Noldus Information Technology). Velocity (cm/s) and total distance moved (cm) were recorded. […]

Mecp2-deficient mice [2] = experiment: Open-field activity (total distance moved, velocity); assay type: in vivo, mouse
Experimental: Experiments were performed on Sprague dawley rats and B6.129P2(C)- MeCP2 tm1-1 Bird mouse model for RTT (Guy, J., Hendrich, B., Holmes, M., Martin, J. E., Bird, A. (2001) A mouse Mecp2-null mutation causes neurological symptoms that mimic Rett syndrome. Nat. Genet. 27, 322-326). The mice were obtained from the Jackson Laboratory and maintained on a C57BL/6 background. The rats were obtained from Charles River Laboratories, France. The experimental procedures were carried out in keeping with the European guidelines for the care and use of laboratory animals (Council Directive […]). For the mouse experiments, hemizygous mutant males (MeCP2^-/y) were generated by crossing heterozygous knockout females to C57BL/6 males. Genotyping was performed by routine PCR technique according to Jackson Laboratory protocols and as previously described (Viemari, J. C., Roux, J. C., Tryba, A. K., Saywell, V., Burnet, H., Peña, F., Zanella, S., Bévengut, M., Barthelemy-Requin, M., Herzing, L. B., Moncla, A., Mancini, J., Ramirez, J. M., Villard, L., Hilaire, G. (2005) Mecp2 deficiency disrupts norepinephrine and respiratory systems in mice. J. Neurosci. 25, 11521-11530).
From P30, animals received a cysteamine treatment in their drinking water (225 mg/kg/day) (Sigma-Aldrich; St-Quentin, France). Every 2 days, mice were weighted, cysteamine solution renewed and treatment consumption checked. […] Seventy-nine Mecp2 deficient mice were studied (lifespan study, n=17 cysteamine-treated and n=42 untreated; motor evaluation n=10 cysteamine-treated and n=10 untreated). The mice were assigned to each experimental group by an investigator who was blind to their genotype. Open-field activity was measured in an arena made of clear perspex (38×30 cm). The test session lasted 15 min with data recorded using the Ethovision 2.3.19 tracking system (Noldus Information Technology). Velocity (cm/s) and total distance moved (cm) were recorded. Velocity calculations on Ethovision were obtained using an input filter setting the minimal distance moved (0.6 cm) so that ambulations shorter than this value were never taken into account.

Question: For NCCS [cysteamine], which life span (Mecp2-deficient mice [1]) is on record?
Answer: Its life span is 74.8 ± 5.2 days.

Question: What about the “locomotion in open field arena (total distance moved and velocity)” value (Mecp2-deficient mice [2]; Mecp2-deficient mice, chronic oral cysteamine vs placebo group, especially in the later stages) of the same molecule?
Answer: The value was “significantly improved locomotion”.

Question: What about the “mouse velocity in open field” value (Mecp2-deficient mice [2]; Mecp2-deficient mice, oral cysteamine vs vehicle, from P65, p<0.05, n=10 per group) of the same molecule?
Answer: The value was “significantly increased”.

Question: What about the “total distance traveled in the open field arena during the 15-minute session” value (Mecp2-deficient mice [2]; Mecp2-deficient mice, oral cysteamine vs vehicle, from P75, n=10 per group) of the same molecule?
Answer: The value was “statistically increased”.

Question: What about the “total distance, difference between cysteamine treated and placebo group” value (Mecp2-deficient mice [2]; P55, open field 15 min) of the same molecule?
Answer: Its value is “+3%”.

Question: What about the “velocity, difference between cysteamine treated and placebo group” value (Mecp2-deficient mice [2]; P55, open field 15 min) of the same molecule?
Answer: Its value is “+18%”.

Question: What about the “total distance, difference between cysteamine treated and placebo group” value (Mecp2-deficient mice [2]; P65, open field 15 min) of the same molecule?
Answer: The value was “+40%”.

Question: And the “velocity, difference between cysteamine treated and placebo group” value (Mecp2-deficient mice [2]; P65, open field 15 min)?
Answer: The value was “+33%”.

Question: And the “total distance, difference between cysteamine treated and placebo group” value (Mecp2-deficient mice [2]; P75, open field 15 min)?
Answer: Its value is “+128%”.

Question: What about the “velocity, difference between cysteamine treated and placebo group” value (Mecp2-deficient mice [2]; P75, open field 15 min) of the same molecule?
Answer: The value was “+65%”.

Question: What about the “total distance, difference between cysteamine treated and placebo group” value (Mecp2-deficient mice [2]; P85, open field 15 min) of the same molecule?
Answer: The value was “+485%”.

Question: And the “velocity, difference between cysteamine treated and placebo group” value (Mecp2-deficient mice [2]; P85, open field 15 min)?
Answer: The value was “+74%”.
